Experimental data: article PMC10746543, “Design principles for cyclin K molecular glue degraders” (Nature Chemical Biology, 2023)
Values joined by “and” are separate entries in the source; they are usually repeats but may differ in a detail not shown here. Equal entries are not always repeated. Where two headings read alike, the source gives them in different places.

Legend:
HEK293T cells = test: Drug sensitivity assay (CellTiter-Glo viability) with or without MLN4924 pretreatment; type: cell-based, human; conditions: for EC50: Homo sapiens, HEK-293T, HEK293T viability, 72 h, compound alone, read-out: Cellular assays EC50; for EC50 / Toxicity rescue: Supplementary Table 2; for Toxicity rescue: MLN4924-mediated cytotoxicity rescue, 10 µM used where n.d.
In short: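 Cas9-expressing HEK293T cells receive either vehicle or 100 nM MLN4924, then compounds 2 h afterwards. After three days, luminescence-based viability is measured and calculated relative to DMSO.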

CDK12–cyclin K and DDB1 = biological target: T1, CDK12–cyclin K and DDB1 (Homo sapiens, UniProt Q16531+Q9NYV4, K965R); test: TR-FRET ternary complex formation assay (compound titration); type: binding; conditions: for TR-FRET signal at compound concentration: replicate titrations
T1 construct: His6–CDK12 (a.a. 713–1,052); full-length or beta-propeller B domain deletion (ΔBPB: a.a. 396–705 deleted) constructs of His6–DDB1ΔBPB, StrepII–Avi–DDB1, or His6–Spy–DDB1; made in house; host or cells: Trichoplusia ni High Five insect cells (baculovirus)
T1 sequence (Q9NYV4 713-1052 K965R): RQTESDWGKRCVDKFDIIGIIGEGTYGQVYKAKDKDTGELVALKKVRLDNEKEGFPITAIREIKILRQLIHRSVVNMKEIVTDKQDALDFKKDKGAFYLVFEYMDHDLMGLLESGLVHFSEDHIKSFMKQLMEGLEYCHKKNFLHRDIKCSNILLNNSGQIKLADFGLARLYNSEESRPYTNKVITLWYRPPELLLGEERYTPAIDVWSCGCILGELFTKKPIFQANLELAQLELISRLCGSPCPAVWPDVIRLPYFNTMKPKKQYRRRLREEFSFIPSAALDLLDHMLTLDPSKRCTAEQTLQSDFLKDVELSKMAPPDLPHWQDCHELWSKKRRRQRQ
T1 sequence (O75909 1-267 partner): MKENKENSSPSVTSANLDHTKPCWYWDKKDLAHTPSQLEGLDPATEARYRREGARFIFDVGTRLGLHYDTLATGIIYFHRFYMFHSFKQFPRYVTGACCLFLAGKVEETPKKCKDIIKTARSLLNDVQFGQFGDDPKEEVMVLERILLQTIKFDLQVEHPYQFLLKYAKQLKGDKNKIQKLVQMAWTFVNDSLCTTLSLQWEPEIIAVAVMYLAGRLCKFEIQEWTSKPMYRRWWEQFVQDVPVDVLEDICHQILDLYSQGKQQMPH
T1 sequence (Q16531 whole entry): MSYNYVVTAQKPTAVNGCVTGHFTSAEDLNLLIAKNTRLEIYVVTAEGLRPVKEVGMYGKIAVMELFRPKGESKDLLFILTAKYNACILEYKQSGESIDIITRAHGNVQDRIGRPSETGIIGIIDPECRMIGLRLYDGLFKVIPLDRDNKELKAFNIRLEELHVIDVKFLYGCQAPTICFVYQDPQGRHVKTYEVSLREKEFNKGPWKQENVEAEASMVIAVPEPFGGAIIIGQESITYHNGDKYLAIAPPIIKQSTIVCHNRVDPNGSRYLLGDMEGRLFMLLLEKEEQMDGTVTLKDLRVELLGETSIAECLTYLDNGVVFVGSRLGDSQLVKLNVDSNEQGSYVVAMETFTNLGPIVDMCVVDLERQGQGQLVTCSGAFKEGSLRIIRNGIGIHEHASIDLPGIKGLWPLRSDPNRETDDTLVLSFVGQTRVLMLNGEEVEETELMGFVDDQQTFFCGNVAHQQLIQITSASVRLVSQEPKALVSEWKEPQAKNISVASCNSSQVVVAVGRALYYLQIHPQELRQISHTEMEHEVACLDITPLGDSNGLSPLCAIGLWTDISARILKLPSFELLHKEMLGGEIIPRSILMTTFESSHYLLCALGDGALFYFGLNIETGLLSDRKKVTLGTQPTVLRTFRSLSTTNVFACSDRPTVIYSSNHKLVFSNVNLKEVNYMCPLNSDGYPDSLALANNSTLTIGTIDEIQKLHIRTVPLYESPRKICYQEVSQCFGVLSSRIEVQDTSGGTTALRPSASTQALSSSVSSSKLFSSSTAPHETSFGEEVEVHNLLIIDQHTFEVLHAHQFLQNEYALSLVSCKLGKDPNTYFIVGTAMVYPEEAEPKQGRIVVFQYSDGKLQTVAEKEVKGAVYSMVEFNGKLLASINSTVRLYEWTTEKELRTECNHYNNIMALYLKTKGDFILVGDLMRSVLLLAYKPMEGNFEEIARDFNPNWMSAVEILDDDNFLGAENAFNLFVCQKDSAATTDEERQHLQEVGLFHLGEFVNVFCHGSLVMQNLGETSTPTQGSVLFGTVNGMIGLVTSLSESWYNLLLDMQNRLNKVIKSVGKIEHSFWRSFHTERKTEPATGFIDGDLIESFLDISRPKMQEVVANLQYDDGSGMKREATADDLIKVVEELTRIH
In short: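 A time delay of 70 μs preceded acquisition, limiting background fluorescence; the ratio of emission at 520 versus 490 nm gave the TR-FRET value.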

[1] = system: cyclin K–eGFP degradation reporter; test: Cyclin K reporter stability analysis (dual-color cyclin K–eGFP reporter); type: cell-based, human
Procedure: HEK293T–Cas9 cells expressing the cyclin K–eGFP degradation reporter were resuspended at 1 × 10^6 ml^−1 and 50 µl of cell suspension was seeded in non-cell-culture-treated 384-well plates. Shortly after, cells were treated with drug or DMSO for 5 h. […] The fluorescent signal was quantified by flow cytometry (LSRFortessa flow cytometer, BD Biosciences). Using FlowJo (flow cytometry analysis software, BD Biosciences), the geometric mean of the eGFP and mCherry fluorescent signal for round and mCherry-positive cells was calculated. The ratio of eGFP to mCherry was normalized to the average of three DMSO-treated controls.

[2] = compound concentration 79.2001 nM
[3] = compound concentration 158.4 nM
[4] = compound concentration 309.6 nM
[5] = compound concentration 626.401 nM
[6] = compound concentration 1252.8 nM
[7] = compound concentration 9936.01 nM
[8] = compound concentration 20016 nM
[9] = in vitro complex formation, 50 nM CDK12–cyclin K, 100 nM DDB1, text and figures, read-out: TR-FRET EC50
[10] = Supplementary Table 2; HEK293T cycK-eGFP reporter, 5 h; read-out: Cellular assays DC50
[11] = compound concentration 4.68 nM, raw replicate titration data
[12] = compound concentration 21.6 nM, raw replicate titration data
[13] = compound concentration 36 nM, raw replicate titration data
[14] = compound concentration 79.2001 nM, raw replicate titration data
[15] = compound concentration 158.4 nM, raw replicate titration data
[16] = compound concentration 309.6 nM, raw replicate titration data
[17] = compound concentration 626.401 nM, raw replicate titration data
[18] = compound concentration 1252.8 nM, raw replicate titration data
[19] = compound concentration 2448 nM, raw replicate titration data
[20] = compound concentration 9936.01 nM, raw replicate titration data
[21] = compound concentration 20016 nM, raw replicate titration data

## CC[C@H](CO)Nc1nc(NCCCCc2ccccc2)c2ncn(C(C)C)c2n1 [DS09]
HEK293T cells
  EC50: > 10000 nM
  Toxicity rescue: 0%
CDK12–cyclin K and DDB1; Supplementary Table 2, read-out: TR-FRET EC50 TR-FRET
  EC50: 349 nM
CDK12–cyclin K and DDB1; TR-FRET complex formation
  fold lower affinity than DS11: 5-10 fold
CDK12–cyclin K and DDB1; compound concentration 4.68 nM
  TR-FRET signal: 0.1538 and 0.1597
  TR-FRET signal at compound concentration: 0.1538 and 0.1597
CDK12–cyclin K and DDB1; compound concentration 21.6 nM
  TR-FRET signal: 0.2215 and 0.2268
  TR-FRET signal at compound concentration: 0.2215 and 0.2268
CDK12–cyclin K and DDB1; compound concentration 36 nM
  TR-FRET signal: 0.3624 and 0.3872
  TR-FRET signal at compound concentration: 0.3624 and 0.3872
CDK12–cyclin K and DDB1; [2]
  TR-FRET signal: 0.5721 and 0.6282
  TR-FRET signal at compound concentration: 0.5721 and 0.6282
CDK12–cyclin K and DDB1; [3]
  TR-FRET signal: 0.8913 and 0.9385
  TR-FRET signal at compound concentration: 0.8913 and 0.9385
CDK12–cyclin K and DDB1; [4]
  TR-FRET signal: 1.311 and 1.295
  TR-FRET signal at compound concentration: 1.311 and 1.295
CDK12–cyclin K and DDB1; [5]
  TR-FRET signal: 1.632 and 1.6565
  TR-FRET signal at compound concentration: 1.632 and 1.6565
CDK12–cyclin K and DDB1; [6]
  TR-FRET signal: 1.8858 and 2.021
  TR-FRET signal at compound concentration: 1.8858 and 2.021
CDK12–cyclin K and DDB1; compound concentration 2448 nM
  TR-FRET signal: 2.206 and 2.209
  TR-FRET signal at compound concentration: 2.206 and 2.209
CDK12–cyclin K and DDB1; [7]
  TR-FRET signal: 2.4811 and 2.469
  TR-FRET signal at compound concentration: 2.4811 and 2.469
CDK12–cyclin K and DDB1; [8]
  TR-FRET signal: 2.543 and 2.456
  TR-FRET signal at compound concentration: 2.543 and 2.456
CDK12–cyclin K and DDB1; [9]
  EC50: 349 ± 15 nM
CDK12–cyclin K and DDB1; sheet MOESM7, read-out: log TR-FRET EC50 (converted)
  EC50: 349 nM
[1]; [10]
  DC50: > 10000 nM

## COC[C@@H](C)N[C@H]1CC[C@H](Nc2cc(-c3cccc(NCC4(C#N)CCOCC4)n3)c(Cl)cn2)CC1 [NVP-2, reference compound]
HEK293T cells
  EC50: 23 nM
  Toxicity rescue: -22%
CDK12–cyclin K and DDB1; [11]
  TR-FRET signal at compound concentration 4.68 nM: 0.1362 and 0.1646
CDK12–cyclin K and DDB1; [12]
  TR-FRET signal at compound concentration 21.6 nM: 0.1797 and 0.2051
CDK12–cyclin K and DDB1; [13]
  TR-FRET signal at compound concentration 36 nM: 0.2299 and 0.264
CDK12–cyclin K and DDB1; [14]
  TR-FRET signal at compound concentration 79.2001 nM: 0.275 and 0.3223
CDK12–cyclin K and DDB1; [15]
  TR-FRET signal at compound concentration 158.4 nM: 0.3283 and 0.3614
CDK12–cyclin K and DDB1; [16]
  TR-FRET signal at compound concentration 309.6 nM: 0.3492 and 0.3941
CDK12–cyclin K and DDB1; [17]
  TR-FRET signal at compound concentration 626.401 nM: 0.3927 and 0.4325
CDK12–cyclin K and DDB1; [18]
  TR-FRET signal at compound concentration 1252.8 nM: 0.4009 and 0.4489
CDK12–cyclin K and DDB1; [19]
  TR-FRET signal at compound concentration 2448 nM: 0.4033 and 0.4482
CDK12–cyclin K and DDB1; [20]
  TR-FRET signal at compound concentration 9936.01 nM: 0.3857 and 0.4199
CDK12–cyclin K and DDB1; [21]
  TR-FRET signal at compound concentration 20016 nM: 0.3623 and 0.3979
CDK12–cyclin K and DDB1; [9]
  EC50: 62 ± 13 nM
[1]; [10]
  DC50: > 10000 nM

## CCc1cnn2c(NCc3ccc[n+]([O-])c3)cc(N3CCCC[C@H]3CCO)nc12 [Dinaciclib]
HEK293T cells; 5 nM, + MLN4924
  viability assay signal (normalized): 0.8664 and 0.8028
HEK293T cells; 5 nM, without MLN4924
  viability assay signal (normalized): 0.9657 and 1.0645
HEK293T cells; 10.7 nM, + MLN4924
  viability assay signal (normalized): 0.7659 and 0.6765
HEK293T cells; 10.7 nM, without MLN4924
  viability assay signal (normalized): 0.9934 and 0.9758
HEK293T cells; 22.9 nM, + MLN4924
  viability assay signal (normalized): 0.3817 and 0.3517
HEK293T cells; 22.9 nM, without MLN4924
  viability assay signal (normalized): 0.3511 and 0.381
HEK293T cells; 48.9 nM, + MLN4924
  viability assay signal (normalized): 0.2784 and 0.2759
HEK293T cells; 48.9 nM, without MLN4924
  viability assay signal (normalized): 0.2851 and 0.2898
HEK293T cells; 105 nM, + MLN4924
  viability assay signal (normalized): 0.2848 and 0.2647
HEK293T cells; 105 nM, without MLN4924
  viability assay signal (normalized): 0.2976 and 0.3085
HEK293T cells; 224 nM, + MLN4924
  viability assay signal (normalized): 0.2797 and 0.277
HEK293T cells; 224 nM, without MLN4924
  viability assay signal (normalized): 0.291 and 0.2867
HEK293T cells; 478 nM, + MLN4924
  viability assay signal (normalized): 0.2746 and 0.2757
HEK293T cells; 478 nM, without MLN4924
  viability assay signal (normalized): 0.3016 and 0.2883
HEK293T cells; 2190 nM, + MLN4924
  viability assay signal (normalized): 0.2646 and 0.2589
HEK293T cells; 2190 nM, without MLN4924
  viability assay signal (normalized): 0.2893 and 0.2745
HEK293T cells; 4680 nM, + MLN4924
  viability assay signal (normalized): 0.2516 and 0.2662
HEK293T cells; 4680 nM, without MLN4924
  viability assay signal (normalized): 0.2682 and 0.2734
HEK293T cells; 10000 nM, + MLN4924
  viability assay signal (normalized): 0.2413 and 0.2482
HEK293T cells; 10000 nM, without MLN4924
  viability assay signal (normalized): 0.239 and 0.2604
HEK293T cells
  Toxicity rescue: -12%
CDK12–cyclin K and DDB1; compound concentration 0.468 nM, raw replicate titration data
  TR-FRET signal at compound concentration 0.468 nM: 0.1026 and 0.1033
CDK12–cyclin K and DDB1; compound concentration 2.16 nM, raw replicate titration data
  TR-FRET signal at compound concentration 2.16 nM: 0.1211 and 0.1202
CDK12–cyclin K and DDB1; compound concentration 3.6 nM, raw replicate titration data
  TR-FRET signal at compound concentration 3.6 nM: 0.158 and 0.1569
CDK12–cyclin K and DDB1; [11]
  TR-FRET signal at compound concentration 4.68 nM: 0.141 and 0.164
CDK12–cyclin K and DDB1; compound concentration 7.92001 nM, raw replicate titration data
  TR-FRET signal at compound concentration 7.92001 nM: 0.229 and 0.2182
CDK12–cyclin K and DDB1; compound concentration 15.84 nM, raw replicate titration data
  TR-FRET signal at compound concentration 15.84 nM: 0.3288 and 0.3136
CDK12–cyclin K and DDB1; [12]
  TR-FRET signal at compound concentration 21.6 nM: 0.2804 and 0.3137
CDK12–cyclin K and DDB1; compound concentration 30.96 nM, raw replicate titration data
  TR-FRET signal at compound concentration 30.96 nM: 0.3522 and 0.3143
CDK12–cyclin K and DDB1; [13]
  TR-FRET signal at compound concentration 36 nM: 0.3155 and 0.3474
CDK12–cyclin K and DDB1; compound concentration 62.6401 nM, raw replicate titration data
  TR-FRET signal at compound concentration 62.6401 nM: 0.2879 and 0.2897
CDK12–cyclin K and DDB1; [14]
  TR-FRET signal at compound concentration 79.2001 nM: 0.2612 and 0.2943
CDK12–cyclin K and DDB1; compound concentration 125.28 nM, raw replicate titration data
  TR-FRET signal at compound concentration 125.28 nM: 0.2755 and 0.2904
CDK12–cyclin K and DDB1; [15]
  TR-FRET signal at compound concentration 158.4 nM: 0.2643 and 0.2881
CDK12–cyclin K and DDB1; compound concentration 244.8 nM, raw replicate titration data
  TR-FRET signal at compound concentration 244.8 nM: 0.2809 and 0.2743
CDK12–cyclin K and DDB1; [16]
  TR-FRET signal at compound concentration 309.6 nM: 0.2462 and 0.2819
CDK12–cyclin K and DDB1; [17]
  TR-FRET signal at compound concentration 626.401 nM: 0.2417 and 0.2805
CDK12–cyclin K and DDB1; compound concentration 993.601 nM, raw replicate titration data
  TR-FRET signal at compound concentration 993.601 nM: 0.2627 and 0.2615
CDK12–cyclin K and DDB1; [18]
  TR-FRET signal at compound concentration 1252.8 nM: 0.2431 and 0.2774
CDK12–cyclin K and DDB1; compound concentration 2001.6 nM, raw replicate titration data
  TR-FRET signal at compound concentration 2001.6 nM: 0.2535 and 0.232
CDK12–cyclin K and DDB1; [19]
  TR-FRET signal at compound concentration 2448 nM: 0.2678 and 0.2721
CDK12–cyclin K and DDB1; [20]
  TR-FRET signal at compound concentration 9936.01 nM: 0.2509 and 0.2771
CDK12–cyclin K and DDB1; [21]
  TR-FRET signal at compound concentration 20016 nM: 0.2402 and 0.253
[1]; 5 nM; replicates
  reporter assay signal (normalized): 0.9772 and 0.948
[1]; 10.7 nM; replicates
  reporter assay signal (normalized): 0.9389 and 0.9407
[1]; 22.9 nM; replicates
  reporter assay signal (normalized): 0.9927 and 0.9745
[1]; 48.9 nM; replicates
  reporter assay signal (normalized): 0.9927 and 0.9772
[1]; 105 nM; replicates
  reporter assay signal (normalized): 0.9863 and 0.9964
[1]; 224 nM; replicates
  reporter assay signal (normalized): 1.014 and 1.0155
[1]; 478 nM; replicates
  reporter assay signal (normalized): 0.99 and 1.01
[1]; 2190 nM; replicates
  reporter assay signal (normalized): 0.9881 and 0.9945
[1]; 4680 nM; replicates
  reporter assay signal (normalized): 1.022 and 0.99
[1]; 10000 nM; replicates
  reporter assay signal (normalized): 1.044 and 1.03
[1]; HEK293T
  cyclin K reporter degradation, result in words: non-degrading
[1]; read-out: Cellular assays DC50; Supplementary Table 2; HEK293T cycK-eGFP reporter, 5 h
  DC50: > 10000 nM
